Test results published in patent US20230265151A1, “GIP/GLP1 CO-AGONIST COMPOUNDS” (priority 2020, published 2023).
Read-outs that look alike come from different tables or passages of the source.

Tests used:
[1] = target: T1, human Gcg receptor (hGcgR) (Homo sapiens, UniProt P47871); assay: [125I]-Glucagon binding, SPA with membranes of HEK293 cells expressing hGcgR; details: human GcgR; geometric mean (SEM, n); read-out: Binding Affinity Ki, nM (SEM, n) hGCGR
T1 construct: expressed in transfected cells; crude membranes

[2] = target: T2, human GIP receptor (hGIPR) (Homo sapiens, UniProt P48546); assay: [125I]-GIP binding, SPA with membranes of CHO cells expressing hGIPR; details: human GIPR; geometric mean (SEM, n); read-out: Binding Affinity Ki, nM (SEM, n) hGIPR
T2 construct: expressed in transfected cells; crude membranes
T2 sequence (P48546 22-466): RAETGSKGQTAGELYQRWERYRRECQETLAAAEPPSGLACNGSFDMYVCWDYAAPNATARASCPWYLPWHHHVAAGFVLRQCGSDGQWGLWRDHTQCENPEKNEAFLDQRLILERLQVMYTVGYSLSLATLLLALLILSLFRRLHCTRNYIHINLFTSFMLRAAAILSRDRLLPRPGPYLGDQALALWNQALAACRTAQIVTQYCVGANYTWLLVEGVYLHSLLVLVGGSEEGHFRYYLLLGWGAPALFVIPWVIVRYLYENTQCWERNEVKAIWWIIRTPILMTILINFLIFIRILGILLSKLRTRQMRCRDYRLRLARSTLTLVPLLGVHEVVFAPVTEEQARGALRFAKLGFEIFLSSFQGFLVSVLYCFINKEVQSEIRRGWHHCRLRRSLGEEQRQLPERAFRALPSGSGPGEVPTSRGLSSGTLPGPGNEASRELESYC

hGIPR = target: T3, hGIPR (Homo sapiens, UniProt P48546); assay: Functional cAMP formation (HTRF) in HEK-293 clonal cells expressing hGIPR, 0.1% bovine casein, without or with 1.0% human serum albumin; format: cell-based; details: 37° C.; for Emax: HEK293, cAMP, percent of maximal response to GIP(1-42)NH2, read-out: hGIPR Emax, % ± SEM; for EC50: cAMP, read-out: hGIPR EC50, nM (SEM, n)
T3 construct: expressed in transfected cells
T3 sequence (P48546 22-466): T2 sequence (P48546 22-466)
Outline: (§1)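 Readings of the HTRF 665/620 nm ratio, which falls as cAMP rises, were converted to nM cAMP using a standard curve after 30 min peptide exposure at 37° C.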

hGCGR = target: T4, hGCGR (Homo sapiens, UniProt P47871); assay: Functional cAMP formation (HTRF) in HEK-293 clonal cells expressing hGCGR, 0.1% bovine casein, without or with 1.0% human serum albumin; format: cell-based; details: cAMP, 37° C., read-out: hGCGR EC50, nM (SEM, n)
T4 construct: expressed in transfected cells
Outline: as §1

hGLP-1R = hGLP-1R (Homo sapiens, UniProt P43220); assay: Functional cAMP formation (HTRF) in HEK-293 clonal cells expressing hGLP-1R, 0.1% bovine casein, without or with 1.0% human serum albumin; format: cell-based; parameters: expressed in transfected cells; details: 37° C.; for Emax: HEK293, cAMP, 0.1% bovine casein, percent of maximal response to GLP-1(7-36)NH2, arithmetic mean, read-out: hGLP-1R Emax, % ± SEM; for EC50: cAMP, read-out: hGLP-1R EC50, nM (SEM, n)
Outline: as §1

[3] = target: T5, human GLP-1 receptor (hGLP-1R) (Homo sapiens, UniProt P43220); assay: [125I]-GLP-1 binding, SPA with membranes of HEK293 cells expressing hGLP-1R; details: human GLP-1R; geometric mean (SEM, n); read-out: Binding Affinity Ki, nM (SEM, n) hGLP-1R
T5 construct: expressed in transfected cells; crude membranes

[4] = 0.1% bovine casein and 1.0% human serum albumin
[5] = 0.1% bovine casein (no human serum albumin), geometric mean
[6] = 0.1% bovine casein and 1.0% human serum albumin, geometric mean (SEM, n)

T4 sequence (P47871 26-477): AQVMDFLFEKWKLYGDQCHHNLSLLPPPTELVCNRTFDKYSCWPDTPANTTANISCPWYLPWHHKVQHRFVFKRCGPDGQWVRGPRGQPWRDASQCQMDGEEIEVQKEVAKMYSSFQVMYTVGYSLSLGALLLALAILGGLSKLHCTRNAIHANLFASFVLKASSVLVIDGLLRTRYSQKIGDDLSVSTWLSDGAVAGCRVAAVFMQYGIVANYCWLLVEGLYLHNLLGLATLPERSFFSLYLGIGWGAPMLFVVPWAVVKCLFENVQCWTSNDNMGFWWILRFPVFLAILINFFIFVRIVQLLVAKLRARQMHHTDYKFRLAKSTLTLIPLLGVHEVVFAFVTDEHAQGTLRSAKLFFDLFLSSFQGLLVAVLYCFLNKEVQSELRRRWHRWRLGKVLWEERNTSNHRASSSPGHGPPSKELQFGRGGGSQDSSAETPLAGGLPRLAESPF
T1 sequence (P47871 26-477): as above
Sequence of hGLP-1R (P43220 24-463): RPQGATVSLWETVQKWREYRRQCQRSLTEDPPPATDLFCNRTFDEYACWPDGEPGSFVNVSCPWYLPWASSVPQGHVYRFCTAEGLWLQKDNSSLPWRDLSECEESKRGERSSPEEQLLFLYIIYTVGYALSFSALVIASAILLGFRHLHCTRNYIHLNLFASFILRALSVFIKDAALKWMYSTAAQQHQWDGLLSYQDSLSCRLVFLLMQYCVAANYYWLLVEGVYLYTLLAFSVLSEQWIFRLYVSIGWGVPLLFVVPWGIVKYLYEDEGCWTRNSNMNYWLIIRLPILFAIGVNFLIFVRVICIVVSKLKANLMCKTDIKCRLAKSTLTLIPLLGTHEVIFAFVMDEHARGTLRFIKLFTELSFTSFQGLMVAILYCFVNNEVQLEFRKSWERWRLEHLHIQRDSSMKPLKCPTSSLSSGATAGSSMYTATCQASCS
T5 sequence (P43220 24-463): as above

Compound | Ki [1] | Ki [2] | Emax (hGIPR; [4]) | EC50 (hGIPR; [5]) | EC50 (hGIPR; [6]) | EC50 (hGCGR; [5]) | EC50 (hGCGR; [6]) | Emax (hGLP-1R) | EC50 (hGLP-1R; [5]) | EC50 (hGLP-1R; [6]) | Ki [3]
CC[C@H](C)[C@H](NC(=O)[C@H](CC(C)C)NC(=O)[C@](C)(Cc1ccc(O)cc1)NC(=O)[C@H](CCCCNC(=O)COCCOCCNC(=O)COCCOCCNC(=O)CC[C@H](NC(=O)CCCCCCCCCCCCC(=O)O)C(=O)O)NC(=O)[C@@H](NC(=O)[C@H](Cc1ccccc1)NC(=O)[C@H](CCC(=O)O)NC(=O)C(C)(C)NC(=O)[C@H](CCC(N)=O)NC(=O)[C@H](C)NC(=O)[C@H](CCC(N)=O)NC(=O)[C@H](CCCN)NC(=O)[C@H](CC(=O)O)NC(=O)[C@H](CC(C)C)NC(=O)[C@](C)(CC(C)C)NC(=O)[C@@H](NC(=O)C(C)(C)NC(=O)[C@H](Cc1ccncc1)NC(=O)[C@H](CC(=O)O)NC(=O)[C@H](CO)NC(=O)[C@@H](NC(=O)[C@](C)(Cc1ccccc1F)NC(=O)[C@@H](NC(=O)CNC(=O)[C@H](CCC(=O)O)NC(=O)C(C)(C)NC(=O)[C@@H](N)Cc1ccc(O)cc1)[C@@H](C)O)[C@@H](C)O)[C@@H](C)CC)[C@@H](C)CC)C(=O)N[C@@H](CCCCNC(=O)COCCOCCNC(=O)COCCOCCNC(=O)CC[C@H](NC(=O)CCCCCCCCCCCCC(=O)O)C(=O)O)C(=O)NCC(=O)NCC(=O)N1CCC[C@H]1C(=O)N[C@@H](CO)C(=O)N[C@@H](CO)C(=O)NCC(=O)N[C@@H](C)C(=O)N1CCC[C@H]1C(=O)N1CCC[C@H]1C(=O)N1CCC[C@H]1C(=O)N[C@@H](CO)C(N)=O [Example 411] | > 957 nM | 0.0375 nM | 84.6% | 0.0102 nM | 1.09 nM | > 9950 nM | > 9950 nM | 110% | 0.167 nM | 11.4 nM | 
CC[C@H](C)[C@H](NC(=O)[C@H](CC(C)C)NC(=O)[C@](C)(Cc1ccc(O)cc1)NC(=O)[C@H](CCCCNC(=O)CCCCCNC(=O)COCCOCCNC(=O)CC[C@H](NC(=O)CCCCCCCCCCCCC(=O)O)C(=O)O)NC(=O)[C@@H](NC(=O)[C@H](Cc1ccccc1)NC(=O)[C@H](CCCN)NC(=O)C(C)(C)NC(=O)[C@H](CCC(N)=O)NC(=O)[C@H](C)NC(=O)[C@H](CCC(N)=O)NC(=O)[C@H](CCCN)NC(=O)[C@H](CC(=O)O)NC(=O)[C@H](CC(C)C)NC(=O)[C@](C)(CC(C)C)NC(=O)[C@@H](NC(=O)C(C)(C)NC(=O)[C@H](Cc1ccncc1)NC(=O)[C@H](CC(=O)O)NC(=O)[C@H](CO)NC(=O)[C@@H](NC(=O)[C@](C)(Cc1ccccc1F)NC(=O)[C@@H](NC(=O)CNC(=O)[C@H](CCC(=O)O)NC(=O)C(C)(C)NC(=O)[C@@H](N)Cc1ccc(O)cc1)[C@@H](C)O)[C@@H](C)O)[C@@H](C)CC)[C@@H](C)CC)C(=O)N[C@@H](CCCCNC(=O)CCCCCNC(=O)COCCOCCNC(=O)CC[C@H](NC(=O)CCCCCCCCCCCCC(=O)O)C(=O)O)C(=O)NCC(=O)NCC(=O)N1CCC[C@H]1C(=O)N[C@@H](CO)C(=O)N[C@@H](CO)C(=O)NCC(=O)N[C@@H](C)C(=O)N1CCC[C@H]1C(=O)N1CCC[C@H]1C(=O)N1CCC[C@H]1C(=O)N[C@@H](CO)C(N)=O [Example 451] | 258 nM | 0.0239 nM | 89.5% | 0.0113 nM |  | > 9950 nM | > 9950 nM | 118% | 0.172 nM |  | 0.234 nM
CC[C@H](C)[C@H](NC(=O)[C@H](CC(C)C)NC(=O)[C@](C)(Cc1ccc(O)cc1)NC(=O)[C@H](CCCCNC(=O)COCCOCCNC(=O)COCCOCCNC(=O)COCCOCCNC(=O)CC[C@H](NC(=O)CCCCCCCCCCCCC(=O)O)C(=O)O)NC(=O)[C@@H](NC(=O)[C@H](Cc1ccccc1)NC(=O)[C@H](CCC(=O)O)NC(=O)C(C)(C)NC(=O)[C@H](CCC(N)=O)NC(=O)[C@H](C)NC(=O)[C@H](CCC(N)=O)NC(=O)[C@H](CCCN)NC(=O)[C@H](CC(=O)O)NC(=O)[C@H](CC(C)C)NC(=O)[C@](C)(CC(C)C)NC(=O)[C@@H](NC(=O)C(C)(C)NC(=O)[C@H](Cc1ccncc1)NC(=O)[C@H](CC(=O)O)NC(=O)[C@H](CO)NC(=O)[C@@H](NC(=O)[C@](C)(Cc1ccccc1F)NC(=O)[C@@H](NC(=O)CNC(=O)[C@H](CCC(=O)O)NC(=O)C(C)(C)NC(=O)[C@@H](N)Cc1ccc(O)cc1)[C@@H](C)O)[C@@H](C)O)[C@@H](C)CC)[C@@H](C)CC)C(=O)N[C@@H](CCCCNC(=O)COCCOCCNC(=O)COCCOCCNC(=O)COCCOCCNC(=O)CC[C@H](NC(=O)CCCCCCCCCCCCC(=O)O)C(=O)O)C(=O)NCC(=O)NCC(=O)N1CCC[C@H]1C(=O)N[C@@H](CO)C(=O)N[C@@H](CO)C(=O)NCC(=O)N[C@@H](C)C(=O)N1CCC[C@H]1C(=O)N1CCC[C@H]1C(=O)N1CCC[C@H]1C(=O)N[C@@H](CO)C(N)=O [Example 460] | > 959 nM | 0.0528 nM | 89.5% | 0.0108 nM |  | > 9950 nM | > 9950 nM | 111% | 0.187 nM | 6.31 nM | 
CC[C@H](C)[C@H](NC(=O)[C@H](CC(C)C)NC(=O)[C@](C)(Cc1ccc(O)cc1)NC(=O)[C@@H](CCC(=O)O)NC(=O)[C@@H](NC(=O)[C@H](Cc1ccccc1)NC(=O)[C@H](CCCCNC(=O)COCCOCCNC(=O)COCCOCCNC(=O)CC[C@H](NC(=O)CCCCCCCCCCCCC(=O)O)C(=O)O)NC(=O)C(C)(C)NC(=O)[C@H](CCC(N)=O)NC(=O)[C@H](C)NC(=O)[C@H](CCC(N)=O)NC(=O)[C@H](CCCN)NC(=O)[C@H](CC(=O)O)NC(=O)[C@H](CC(C)C)NC(=O)[C@](C)(CC(C)C)NC(=O)[C@@H](NC(=O)C(C)(C)NC(=O)[C@H](Cc1ccncc1)NC(=O)[C@H](CC(=O)O)NC(=O)[C@H](CO)NC(=O)[C@@H](NC(=O)[C@](C)(Cc1ccccc1F)NC(=O)[C@@H](NC(=O)CNC(=O)[C@H](CCC(=O)O)NC(=O)C(C)(C)NC(=O)[C@@H](N)Cc1ccc(O)cc1)[C@@H](C)O)[C@@H](C)O)[C@@H](C)CC)[C@@H](C)CC)C(=O)N[C@@H](CCCCNC(=O)COCCOCCNC(=O)COCCOCCNC(=O)CC[C@H](NC(=O)CCCCCCCCCCCCC(=O)O)C(=O)O)C(=O)NCC(=O)NCC(=O)N1CCC[C@H]1C(=O)N[C@@H](CO)C(=O)N[C@@H](CO)C(=O)NCC(=O)N[C@@H](C)C(=O)N1CCC[C@H]1C(=O)N1CCC[C@H]1C(=O)N1CCC[C@H]1C(=O)N[C@@H](CO)C(N)=O [Example 488] | > 958 nM | 0.064 nM | 85.5% | 0.0115 nM | 0.718 nM | > 10100 nM | > 9950 nM | 113% | 0.207 nM | 13 nM | 
